For the experiment, the system named is neuronal cells in organotypical hippocampal tissue cuts. Briefly: transient oxygen/glucose deprivation (OGD) of organotypical hippocampal tissue cuts, neuronal damage. Type of experiment: cell-based, rats. To be noted: for neuronal damage, % of the damaged surface area, Median / neuronal damage, % of the damaged surface area, Average Value: after standard OGD with the substance applied, cocktail = α-lipoic acid 10 μg/ml, ambroxol 10 μM, Enalapril 20 μg/ml; for neuronal damage, % of the damaged surface area, Average Value: Control OGD (vehicle) 11.70-13.98; for neuroprotective effect, reduction of the neuronal damage after OGD (in words): after transient OGD, versus standard damage. An excerpt:
For examining the neuroprotective effect of the thiol-reactive substances, the procedure of a transient ischemia for organotypical hippocampal tissue cuts was used, which procedure was standardized in our laboratory. By such a procedure, there are obtained three-dimensional cultivated explantates having a high prediction value for subsequent clinical experiments. In those tissue cultures containing neuronal as well as non-neuronal cells, highly complex intercellular connections are maintained largely. They are of extraordinary importance for the functionality of the whole CNS. The cerebral tissue cultures are exposed to a degenerative event which results into a death of neuronal cells in analogy to clinical situations. The tissue cuts (375 μm) were prepared subsequently from the hippocampus of rats (P7). The cultivation of those cut cultures was effected on membrane inserts having a pore size of 0.02 μm. After 10 to 12 days of cultivation (37° C. in an incubator; 3.3% CO2; 98% relative air humidity), the restructuration processes within the tissue cultures were finished, and a clinical relevant neurodegenerative event was simulated on the tissue cuts by means of a transient oxygen/glucose deprivation. The effect of the substanc(es) was measured in the form of a standard damage change (vehicle application). […] There was quantified the neuronal damage after a standard OGD with and without the application of the cocktail as well as the damage by the application of the cocktail per se (optional toxicity of the substance). The damage is expressed in % of the damaged surface area. In order to obtain such figures, in each tissue cut the whole surface area was compared with the damaged surface area. […] The experiments are based on the protocol described in Example 2. In the course of the experiments shown in FIGS. […], the protective effect of the cocktail was compared with the standard damage after OGD and with the effect resulting from an application of the single substances. […] Tables […] show the relevant statistical parameters.

Counter-ions that a name gives are not always drawn.

Regarding `Nc1c(Br)cc(Br)cc1CNC1CCC(O)CC1` (stereo not drawn) [Ambroxol, trans-4-(2-amino-3,5-dibromobenzylamino-) cyclohexane hydrochloride], the “neuronal damage, % of the damaged surface area, Median” value (“neuronal damage, % … Median” below) is given as 8.32%; the “neuronal damage, % of the damaged surface area, Average Value” (“neuronal damage, % … Average Value” for short) is 10.79%; the “neuroprotective effect, reduction of the neuronal damage after OGD (in words)” value (“neuroprotective effect, reduction” for short) is listed as “neither α-lipoic acid nor ambroxol nor the ACE inhibitor, if applied alone, were capable of reducing the neuronal damage significantly”.
For `CCOC(=O)[C@H](CCc1ccccc1)N[C@@H](C)C(=O)N1CCC[C@H]1C(=O)O` [Enalapril, 1-{N-[(S)-1-Ethoxycarbonyl-3-phenylpropyl-]L-alanyl-}L-proline], the “neuronal damage, % … Median” value is 8.70%; the “neuronal damage, % … Average Value” was 11.23%; the “neuroprotective effect, reduction” value is recorded as “neither α-lipoic acid nor ambroxol nor the ACE inhibitor, if applied alone, were capable of reducing the neuronal damage significantly”.
For `O=C(O)CCCC[C@@H]1CCSS1` [α-Lipoic Acid, (R)-5-(1,2-dithiolane-3-yl-)pentanoic acid], the “neuronal damage, % … Median” value turned out to be 13.54%; the “neuronal damage, % … Average Value” was 14.82%; the “neuroprotective effect, reduction” value is “neither α-lipoic acid nor ambroxol nor the ACE inhibitor, if applied alone, were capable of reducing the neuronal damage significantly”.

Values taken from patent publication US7858655B2, “Drug preparation comprising α-lipoic acid, ambroxol and/or inhibitors of the angiotensin-converting enzyme (ACE) and its use for the treatment of neurodegenerative diseases” (Keyneurotek Pharmaceuticals AG, priority 2004, dated 2010).
